# ChEMBL document CHEMBL1145741, “Inhibition of bacterial IF2 binding to fMet-tRNA((fMet)) by aminoglycosides” (Bioorg Med Chem Lett, 2003)
# pIC50: −log10 of the molar value.
# Experiments:
# Staphylococcus aureus [1] = assay: (§1) Maximal inhibition of the aminoglycoside on Staphylococcus aureus IF-2 binding to fMet-tRNA(fMet)
# [2] = Inhibitory activity of the aminoglycoside on Staphylococcus aureus IF-2 binding to fMet-tRNA(fMet)
# Staphylococcus aureus [3] = assay: (§2) Maximal inhibition against the displacement of Picogreen from fMet-tRNA(fMet) by the aminoglycoside
# Staphylococcus aureus [4] = assay: (§3) Denaturation rate constant of IF2 in the presence of aminoglycoside
# [5] = (§4) Inhibitory activity against the displacement of Picogreen from fMet-tRNA(fMet) by the aminoglycoside; parameters: species or system Staphylococcus aureus
# Staphylococcus aureus [6] = assay: as §1; type: functional
# Staphylococcus aureus [7] = assay: as §4; type: functional
# Staphylococcus aureus [8] = assay: as §2; type: functional
# Staphylococcus aureus [9] = assay: as §3; type: functional
# Staphylococcus aureus [10] = assay: Inhibitory activity of the aminoglycoside on Staphylococcus aureus IF-2 binding to fMet-tRNA (fMet); type: functional
inhibition (Staphylococcus aureus [1]),pIC50 [2],inhibition (Staphylococcus aureus [3]),Denaturation rate constant (Staphylococcus aureus [4]),pIC50 [5],pIC50 (Staphylococcus aureus [7]),pIC50 (Staphylococcus aureus [10]),Compound,Inhibition (Staphylococcus aureus [6]),inhibition (Staphylococcus aureus [8]),Denaturation rate constant (Staphylococcus aureus [9])
43%,5.83,95%,0.094 min⁻¹,5.75,–,–,CN[C@@H]1[C@H](O[C@H]2[C@H](O[C@H]3[C@H](O)[C@@H](O)[C@H](N=C(N)N)[C@@H](O)[C@@H]3N=C(N)N)O[C@@H](C)[C@]2(O)C=O)O[C@@H](CO)[C@H](O)[C@H]1O [STREPTOMYCIN],–,–,–
76%,7.30,100%,0.095 min⁻¹,8.05,–,–,NC[C@@H]1O[C@H](O[C@H]2[C@@H](O)[C@H](O[C@@H]3[C@@H](O)[C@H](N)C[C@H](N)[C@H]3O[C@H]3O[C@H](CN)[C@@H](O)[C@H](O)[C@H]3N)O[C@@H]2CO)[C@H](N)[C@@H](O)[C@@H]1O [FRAMYCETIN],–,–,–
43%,5.99,85%,0.093 min⁻¹,6.80,–,–,NCC[C@H](O)C(=O)N[C@@H]1C[C@H](N)[C@@H](O[C@H]2O[C@H](CN)[C@@H](O)[C@H](O)[C@H]2O)[C@H](O)[C@H]1O[C@H]1O[C@H](CO)[C@@H](O)[C@H](N)[C@H]1O [AMIKACIN],–,–,–
–,–,–,–,–,8.15,8.15,CN[C@@H]1[C@@H](O)[C@@H](O[C@@H]2[C@@H](O)[C@H](O[C@H]3OC(CN)=CC[C@H]3N)[C@@H](N)C[C@H]2N)OC[C@]1(C)O [SISOMICIN],75%,100%,0.087 min⁻¹
61%,4.75,92%,0.092 min⁻¹,7.62,–,–,NC[C@@H]1O[C@@H](O[C@H]2[C@H](O)[C@@H](O[C@H]3O[C@H](CO)[C@@H](O)[C@H](N)[C@H]3O)[C@H](N)C[C@@H]2N)[C@@H](O)[C@H](O)[C@H]1O [KANAMYCIN A],–,–,–

Compound,inhibition (Staphylococcus aureus [1]),pIC50 [2],inhibition (Staphylococcus aureus [3]),Denaturation rate constant (Staphylococcus aureus [4]),pIC50 [5],pIC50 (Staphylococcus aureus [7]),pIC50 (Staphylococcus aureus [10]),Inhibition (Staphylococcus aureus [6]),inhibition (Staphylococcus aureus [8]),Denaturation rate constant (Staphylococcus aureus [9])
CN[C@@H]1C[C@H](N)[C@@H](O)[C@H](O[C@H]2O[C@H](CO)[C@H](O)[C@@H]3O[C@@]4(O[C@@H]23)O[C@H]([C@H](N)CO)[C@H](O)[C@H](O)[C@H]4O)[C@H]1O [HYGROMYCIN],84%,4.18,81%,0.096 min⁻¹,6.56,–,–,–,–,–
CNC1C(O)C(OC2C(N)CC(N)C(OC3OC(CN)CCC3N)C2O)OCC1(C)O (configuration not stated) [GENTAMICIN C1A],66%,6.35,–,–,–,–,–,–,–,–
